The values that follow come from patent US6476263B1, “Compounds for inhibiting β-amyloid peptide release and/or its synthesis” (Elan Pharmaceuticals, Inc., priority 1996, dated 2002).

SMILES strings stand for the structures. Non-standard residues stand in square brackets, D forms with d. Residues, ends and D or L forms follow the SMILES beside them. ξ: configuration not given here. *: point of attachment. Isovaleryl = CC(C)CC(=O)*; ξChg = NC(C(=O)O)C1CCCCC1

As a reminder, the melting point is the temperature of the solid-liquid transition.

As for `CCOC(=O)C(NC(=O)[C@H](C)NC(=O)Cc1cc(F)cc(F)c1)c1ccncc1` (stereo partly drawn) [Example 66, Ethyl N-[N-(3,5-Difluorophenylacetyl)-L-alaninyl]-2-amino-2-(4-pyridyl)acetate], the melting point was in the range of 175 to 181 °C.

Regarding `COC(=O)[C@H](Cc1ccccc1)NC(=O)[C@H](C)NC(=O)CC1CCCCC1` [Example 67, N-[N-(Cyclohexylacetyl)-L-alaninyl]-L-phenylalanine Methyl Ester], the melting point is 156 to 158 °C.

In turn, `COC(=O)[C@H](Cc1ccccc1)NC(=O)[C@H](C)NC(=O)CC1CCCC1` [Example 68, N-[N-(Cyclopentylacetyl)-L-alaninyl]-L-phenylalanine Methyl Ester] returned a melting point of 137 to 139 °C. Consider `COC(=O)[C@H](Cc1ccccc1)NC(=O)[C@H](C)NC(=O)CC1=CCCCC1` [Example 69, N-[N-(Cyclohex-1-enylacetyl)-L-alaninyl]-L-phenylalanine Methyl Ester], for which the melting point lay in the range of 139 to 142 °C. In the case of `COC(=O)[C@H](Cc1ccccc1)NC(=O)[C@H](C)NC(=O)CC1CC1` [Example 72, N-[N-(Cyclopropylacetyl)-L-alaninyl]-L-phenylalanine Methyl Ester], the melting point fell in the range of 128 to 131 °C.

`C[C@H](NC(=O)Cc1cc(F)cc(F)c1)C(=O)NCC(=O)OCc1ccccc1` [Example 73, N-[N-(3,5-Difluorophenylacetyl)-L-alaninyl]glycine Benzyl Ester]: the melting point came out at 167.5 °C. `CCOC(=O)[C@H](C)NC(=O)[C@@H](NC(=O)CC(C)C)c1ccccc1` [Example 74, N-[N-(Isovaleryl)-L-phenylglycinyl]-L-alanine Ethyl Ester] (HELM PEPTIDE1{[CC(C)CC(=O)[*:2]].[Phg].A.[CCO[*:1]]}$$$$V2.0) came in with a melting point of 198 to 201 °C.

In turn, `COC(=O)[C@H](Cc1ccccc1)NC(=O)[C@H](C)NC(=O)Cc1cccc([N+](=O)[O-])c1` [Example 75, N-[N-(3-Nitrophenylacetyl)-L-alaninyl]-L-phenylalanine Methyl Ester] had a melting point of 154 to 158 °C. Regarding `CCOC(=O)[C@H](C)NC(=O)[C@H](C)NC(=O)Cc1cccc([N+](=O)[O-])c1` [Example 76, N-[N-(3-Nitrophenylacetyl)-L-alaninyl]-L-alanine Ethyl Ester], the melting point is 193 to 195 °C.

`CCOC(=O)CNC(=O)[C@H](C)NC(=O)Cc1cccc([N+](=O)[O-])c1` [Example 77, N-[N-(3-Nitrophenylacetyl)-L-alaninyl]glycine Ethyl Ester]: the melting point fell in the range of 164 to 165 °C. In turn, `CC(C)COC(=O)[C@H](C)NC(=O)[C@@H](NC(=O)CC(C)C)c1ccccc1` [Example 79, N-[N-(Isovaleryl)-L-phenylglycinyl]-L-alanine iso-butyl Ester] yielded a melting point of 181 to 186 °C.

The compound `CCOC(=O)[C@H](Cc1ccc(O)cc1)NC(=O)[C@H](C)NC(=O)Cc1cccc([N+](=O)[O-])c1` [Example 81, N-[N-(3-Nitrophenylacetyl)-L-alaninyl]-L-tyrosine Ethyl Ester] returned a melting point of 117 to 119 °C. In the case of `CC[C@H](C)[C@H](NC(=O)CC(C)C)C(=O)N[C@@H](C)C(=O)OCC(C)C` [Example 82, N-[N-(Isovaleryl)-L-isoleucinyl]-L-alanine iso-butyl Ester] it was 142 to 146 °C; in that of `CC(C)COC(=O)[C@H](C)NC(=O)[C@@H](NC(=O)[C@@H](NC(=O)CC(C)C)C(C)C)c1ccccc1` [Example 83, N-[N-[N-(Isovaleryl)-L-valinyl]-L-phenylglycinyl]-L-alanine iso-butyl Ester], 217 to 221 °C; in that of `CC(C)COC(=O)[C@H](C)NC(=O)[C@H](Cc1ccccc1)NC(=O)CC(C)C` [Example 84, N-[N-(Isovaleryl)-L-phenylalaninyl]-L-alanine iso-butyl Ester], 135 to 138 °C. Take `CCOC(=O)[C@H](C)NC(=O)[C@H](C)NC(=O)Cc1cc(F)cc(F)c1` [Example 85, N-[N-(3,5-Difluorophenylacetyl)-L-alaninyl]-L-alanine Ethyl Ester]: the melting point was 197 to 199 °C.

As for `COC(=O)[C@H](Cc1c[nH]c2ccccc12)NC(=O)[C@H](C)NC(=O)Cc1cc(F)cc(F)c1` [Example 106, N-[N-(3,5-Difluorophenylacetyl)-L-alaninyl]-L-tryptophan Methyl Ester], the melting point fell in the range of 191 to 193 °C. In turn, `CCOC(=O)[C@H](C)NC(=O)[C@@H](NC(=O)Cc1ccccc1)c1ccccc1` [Example 108, N-[N-(Phenylacetyl)-L-phenylglycinyl]-L-alanine Ethyl Ester] (HELM PEPTIDE1{[O=C(Cc1ccccc1)[*:2]].[Phg].A.[CCO[*:1]]}$$$$V2.0) yielded a melting point of 208 to 210 °C. `COC(=O)[C@@H](NC(=O)[C@H](Cc1ccccc1)NC(=O)[C@H](C)NC(=O)Cc1cc(F)cc(F)c1)c1ccccc1` [Example 109, N-[N-[N-(3,5-Difluorophenylacetyl)-L-alaninyl]-L-phenylalaninyl]-L-phenylglycine Methyl Ester]: the melting point lay in the range of 203 to 207 °C. In the case of `CCOC(=O)[C@H](C)NC(=O)[C@@H](NC(=O)CC1CCCCC1)c1ccccc1` [Example 110, N-[N-(Cyclohexylacetyl)L-phenylglycinyl]-L-alanine Ethyl Ester] it was 196 to 198 °C; in that of `COC(=O)[C@@H](NC(=O)[C@H](C)NC(=O)Cc1cc(F)cc(F)c1)c1ccccc1` [Example 111, N-[N-(3,5-Difluorophenylacetyl)-L-alaninyl]-L-phenylglycine Methyl Ester], 198 to 200 °C; in that of `COC(=O)[C@@H](NC(=O)[C@H](C)NC(=O)[C@H](C)NC(=O)Cc1cc(F)cc(F)c1)c1ccccc1` [Example 112, N-[N-[N-(3,5-Difluorophenylacetyl)-L-alaninyl]-L-alaninyl]-L-phenylglycine Methyl Ester], 243 to 245 °C.

Compound `CCOC(=O)[C@H](CO)NC(=O)[C@H](C)NC(=O)Cc1cccc([N+](=O)[O-])c1` [Example 117, N-[N-(3-Nitrophenylacetyl)-L-alaninyl]-L-serine Ethyl Ester] yielded a melting point of 179 to 181 °C. In turn, `CCOC(=O)C(C)(NC(=O)[C@H](C)NC(=O)Cc1cc(F)cc(F)c1)c1ccccc1` (stereo partly drawn) [Example 123, Ethyl N-[N-(3,5-Difluorophenylacetyl)-L-alaninyl]-2-amino-2-phenylpropionate] yielded a melting point of 128 to 130 °C. Consider `CCOC(=O)C(NC(=O)[C@H](C)NC(=O)Cc1cc(F)cc(F)c1)C1CCCCC1` (stereo partly drawn) [Example 126, Ethyl N-[N-(3,5-Difluorophenylacetyl)-L-alaninyl]-2-amino-2-cyclohexylacetate], for which the melting point was 146 to 150 °C.

For the compound `CCOC(=O)[C@H](C)NC(=O)C(NC(=O)CC(C)C)C1CCCCC1` (stereo partly drawn) [Example 128, N-[N-(Isovaleryl)-2-amino-2-cyclohexylacetyl]-L-alanine Ethyl Ester] (Isovaleryl-[ξChg]-Ala-OEt), the melting point lay within 220 to 224 °C. The value for `COC(=O)[C@H](Cc1ccccc1)NC(=O)[C@H](C)NC(=O)Cc1cccnc1` [Example 131, N-[N-(3-Pyridylacetyl)-L-alaninyl]-L-phenylalanine Methyl Ester] was 150 to 152 °C; that for `COC(=O)[C@H](Cc1ccccc1)NC(=O)[C@H](C)NC(=O)Cc1ccccn1` [Example 132, N-[N-(2-Pyridylacetyl)-L-alaninyl]-L-phenylalanine Methyl Ester] was 137 to 139 °C. As to `COC(=O)[C@H](Cc1ccccc1)NC(=O)[C@H](C)NC(=O)Cc1ccncc1` [Example 133, N-[N-(4-Pyridylacetyl)-L-alaninyl]-L-phenylalanine Methyl Ester], the melting point was in the range of 152 to 154 °C. In the case of `CCOC(=O)C(NC(=O)[C@H](C)NC(=O)Cc1cc(F)cc(F)c1)c1ccccc1F` (stereo partly drawn) [Example 135, Ethyl N-[N-(3,5-Difluorophenylacetyl)-L-alaninyl]-2-amino-2-(2-fluorophenyl)acetate], the melting point fell in the range of 153 to 170 °C. `C[C@H](NC(=O)Cc1cc(F)cc(F)c1)C(=O)N[C@H](C(=O)OCC(C)(C)C)c1ccccc1` [Example 138, N-[N-(3,5-Difluorophenylacetyl)-L-alaninyl]-L-phenylglycine Neopentyl Ester] returned a melting point of 133 to 136 °C. In turn, `CC[C@H](NC(=O)[C@H](C)NC(=O)Cc1cc(F)cc(F)c1)C(=O)OC` [Example 160, Methyl N-[N-(3,5-difluorophenylacetyl)-L-alaninyl]-(S)-2-aminobutanoate] had a melting point of 103 to 106 °C. For `COC(=O)C(NC(=O)[C@H](C)NC(=O)Cc1cc(F)cc(F)c1)c1cc2cc(Cl)ccc2s1` (stereo partly drawn) [Example 173, Methyl N-[N-(3,5-Difluorophenylacetyl)-L-alaninyl]-2-amino-2-(5-chlorobenzothiophen-2-yl)acetate], the melting point fell in the range of 189 to 190 °C. `CCOC(=O)C(NC(=O)[C@H](C)NC(=O)Cc1cc(F)cc(F)c1)c1cc2ccccc2s1` (stereo partly drawn) [Example 174, Ethyl N-[N-(3,5-Difluorophenylacetyl)-L-alaninyl]-2-amino-2-(benzothiophen-2-yl)acetate] showed a melting point of 189 to 190 °C.

For `COC(=O)C(NC(=O)[C@H](C)NC(=O)Cc1cc(F)cc(F)c1)c1csc2ccccc12` (stereo partly drawn) [Example 175, Methyl N-[N-(3,5-Difluorophenylacetyl)-L-alaninyl]-2-amino-2-(benzothiophen-3-yl)acetate], the melting point is 185 to 186 °C. Consider `COC(=O)C(NC(=O)[C@H](C)NC(=O)Cc1cc(F)cc(F)c1)c1cccs1` (stereo partly drawn) [Example 176, Methyl N-[N-(3,5-Difluorophenylacetyl)-L-alaninyl]-2-amino-2-(2-thienyl)acetate], for which the melting point lay in the range of 161 to 162 °C. In the case of `CCOC(=O)C(NC(=O)[C@H](C)NC(=O)Cc1cc(F)cc(F)c1)c1ccc2sccc2c1` (stereo partly drawn) [Example 177, Ethyl N-[N-(3,5-Difluorophenylacetyl)-L-alaninyl]-2-amino-2-(benzothiophen-5-yl)acetate], the melting point was in the range of 126.5 to 127.5 °C.
